In assay [1] the target is BDNF/NT-3 growth factors receptor (Homo sapiens, UniProt Q16620). As to the kind of experiment: Inhibition of recombinant human TrkB expressed in DHFR deficient CHO cells assessed as inhibition of human brain-derived neurotrophic factor-induced calcium influx by Fluo-4 AM dye based assay. The format is cell-based.
For assay [2], the target named is NT-3 growth factor receptor (Homo sapiens, UniProt Q16288). As to the kind of experiment: Inhibition of recombinant human TrkC expressed in DHFR deficient CHO cells assessed as inhibition of human neurotrophin-3-induced calcium influx by Fluo-4 AM dye based assay. The format is cell-based.
Chain of NT-3 growth factor receptor (Q16288 whole entry, the tested form may be a part): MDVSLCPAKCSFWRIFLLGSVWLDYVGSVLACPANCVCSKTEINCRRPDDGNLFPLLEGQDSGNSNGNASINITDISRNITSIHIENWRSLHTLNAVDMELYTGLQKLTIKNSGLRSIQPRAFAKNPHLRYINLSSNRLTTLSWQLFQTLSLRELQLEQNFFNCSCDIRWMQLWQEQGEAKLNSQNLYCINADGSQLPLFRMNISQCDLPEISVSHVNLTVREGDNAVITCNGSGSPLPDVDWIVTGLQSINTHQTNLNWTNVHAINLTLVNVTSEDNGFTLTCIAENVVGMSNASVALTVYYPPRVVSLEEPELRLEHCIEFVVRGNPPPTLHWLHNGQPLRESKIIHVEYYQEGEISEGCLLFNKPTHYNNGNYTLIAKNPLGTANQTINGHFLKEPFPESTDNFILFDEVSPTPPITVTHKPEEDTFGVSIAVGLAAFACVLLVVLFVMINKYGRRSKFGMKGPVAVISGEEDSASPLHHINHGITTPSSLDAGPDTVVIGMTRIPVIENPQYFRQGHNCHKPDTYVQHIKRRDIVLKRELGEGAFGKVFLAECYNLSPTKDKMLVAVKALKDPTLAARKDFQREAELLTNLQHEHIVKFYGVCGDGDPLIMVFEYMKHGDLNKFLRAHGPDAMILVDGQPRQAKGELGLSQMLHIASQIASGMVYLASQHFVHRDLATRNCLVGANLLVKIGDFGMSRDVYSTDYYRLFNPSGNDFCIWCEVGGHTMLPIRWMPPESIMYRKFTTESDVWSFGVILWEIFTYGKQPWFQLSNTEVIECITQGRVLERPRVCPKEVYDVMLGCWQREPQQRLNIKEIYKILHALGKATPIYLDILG
The target in assay [3] is T1, High affinity nerve growth factor receptor (Homo sapiens, UniProt P04629). The experiment in a line: Inhibition of juxtamembrane region containing recombinant human N-terminal His6-tagged/GST-tagged TrkA (473 to 796 residues) expressed in baculovirus infected Hi5 cells using TK substrate after 60 mins by HTRF assay.
T1 sequence (P04629 whole entry, the tested form may be a part): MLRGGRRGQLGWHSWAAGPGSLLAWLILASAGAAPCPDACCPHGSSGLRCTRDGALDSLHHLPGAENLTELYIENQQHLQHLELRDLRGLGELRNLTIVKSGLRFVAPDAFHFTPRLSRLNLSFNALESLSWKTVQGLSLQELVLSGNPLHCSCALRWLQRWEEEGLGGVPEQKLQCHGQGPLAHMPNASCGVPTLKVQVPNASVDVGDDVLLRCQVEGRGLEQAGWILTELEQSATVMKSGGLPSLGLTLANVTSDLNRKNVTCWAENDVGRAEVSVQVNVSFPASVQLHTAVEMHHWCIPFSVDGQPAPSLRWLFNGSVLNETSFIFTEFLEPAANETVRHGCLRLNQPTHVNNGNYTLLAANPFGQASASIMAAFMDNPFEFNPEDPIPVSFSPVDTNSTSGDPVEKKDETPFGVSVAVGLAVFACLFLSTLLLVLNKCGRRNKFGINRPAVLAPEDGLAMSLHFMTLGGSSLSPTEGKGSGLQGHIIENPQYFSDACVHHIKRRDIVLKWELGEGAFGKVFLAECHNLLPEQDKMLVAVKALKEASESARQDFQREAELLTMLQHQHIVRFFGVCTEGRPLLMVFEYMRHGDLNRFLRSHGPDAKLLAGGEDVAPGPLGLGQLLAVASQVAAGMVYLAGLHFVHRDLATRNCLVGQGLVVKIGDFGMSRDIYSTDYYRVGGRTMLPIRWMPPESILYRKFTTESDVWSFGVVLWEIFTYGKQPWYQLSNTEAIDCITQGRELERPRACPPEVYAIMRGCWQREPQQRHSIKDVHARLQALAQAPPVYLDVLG
Assay [4] deals with T1, High affinity nerve growth factor receptor. The experiment in a line: Inhibition of juxtamembrane region deficient recombinant human N-terminal His6-tagged/GST-tagged TrkA (498 to 796 residues) expressed in baculovirus infected Hi5 cells using TK substrate after 60 mins by HTRF assay.
For assay [5] the target is unchanged. As to the kind of experiment: Inhibition of recombinant human TrkA expressed in DHFR deficient CHO cells assessed as inhibition of human beta-nerve growth factor-induced calcium influx by Fluo-4 AM dye based assay. The class given is cell-based.

Drawing on ChEMBL document CHEMBL3994638, “The juxtamembrane region of TrkA kinase is critical for inhibitor selectivity” (Bioorg Med Chem Lett, 2017), this text covers IC50 for three compounds.

Structures are written as SMILES.

Chain of BDNF/NT-3 growth factors receptor (Q16620 whole entry): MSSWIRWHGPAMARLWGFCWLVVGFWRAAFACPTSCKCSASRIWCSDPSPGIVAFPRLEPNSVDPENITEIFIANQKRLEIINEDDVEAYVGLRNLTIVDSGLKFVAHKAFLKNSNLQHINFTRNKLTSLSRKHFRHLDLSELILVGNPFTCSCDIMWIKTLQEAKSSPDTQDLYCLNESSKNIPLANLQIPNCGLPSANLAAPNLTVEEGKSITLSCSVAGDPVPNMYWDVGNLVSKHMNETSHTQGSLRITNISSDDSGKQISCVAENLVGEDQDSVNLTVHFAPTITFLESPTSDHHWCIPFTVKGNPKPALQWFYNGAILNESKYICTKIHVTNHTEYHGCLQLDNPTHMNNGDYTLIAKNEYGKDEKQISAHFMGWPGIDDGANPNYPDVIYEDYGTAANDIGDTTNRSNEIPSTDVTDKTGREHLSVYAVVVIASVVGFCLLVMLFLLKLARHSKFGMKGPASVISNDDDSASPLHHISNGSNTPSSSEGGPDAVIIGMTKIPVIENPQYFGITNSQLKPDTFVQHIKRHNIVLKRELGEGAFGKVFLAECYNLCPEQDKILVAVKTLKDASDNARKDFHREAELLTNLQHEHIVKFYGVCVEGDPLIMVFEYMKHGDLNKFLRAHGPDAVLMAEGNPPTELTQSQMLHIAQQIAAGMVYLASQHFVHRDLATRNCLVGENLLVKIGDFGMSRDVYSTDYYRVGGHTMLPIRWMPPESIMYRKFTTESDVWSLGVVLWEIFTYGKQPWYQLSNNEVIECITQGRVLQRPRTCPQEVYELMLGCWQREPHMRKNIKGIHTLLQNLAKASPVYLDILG

Regarding `COc1cc(-c2cn(CC(=O)Nc3cc(C4CC4)nn3-c3ccccc3)nn2)ccc1-n1cnc(C)c1`, the IC50 in assay [1] was determined as 132 nM.

On to `CC(C)Oc1cc(Nc2nc(N[C@@H](C)c3ccc(F)cn3)ncc2Cl)n[nH]1`, for which the IC50 in assay [2] came to 7.2 nM; in assay [1], 6.8 nM.

`CCOc1nn(-c2ccccc2)c(NC(=O)N[C@@H]2CN(CCOC)C[C@H]2c2ccc(F)c(F)c2)c1C`: the IC50 stood at 6 nM in assay [3]; 2480 nM in assay [2]; 37200 nM in assay [4]; 2.7 nM in assay [5]; 1300 nM in assay [1].
